{
  "source": "paper PMC9889419",
  "about": "(Pharmacological Reports, 2022)",
  "key": {"5-HT7": {"target": "5-HT7 (Homo sapiens, UniProt P34969)", "sequence (P34969 whole entry)": "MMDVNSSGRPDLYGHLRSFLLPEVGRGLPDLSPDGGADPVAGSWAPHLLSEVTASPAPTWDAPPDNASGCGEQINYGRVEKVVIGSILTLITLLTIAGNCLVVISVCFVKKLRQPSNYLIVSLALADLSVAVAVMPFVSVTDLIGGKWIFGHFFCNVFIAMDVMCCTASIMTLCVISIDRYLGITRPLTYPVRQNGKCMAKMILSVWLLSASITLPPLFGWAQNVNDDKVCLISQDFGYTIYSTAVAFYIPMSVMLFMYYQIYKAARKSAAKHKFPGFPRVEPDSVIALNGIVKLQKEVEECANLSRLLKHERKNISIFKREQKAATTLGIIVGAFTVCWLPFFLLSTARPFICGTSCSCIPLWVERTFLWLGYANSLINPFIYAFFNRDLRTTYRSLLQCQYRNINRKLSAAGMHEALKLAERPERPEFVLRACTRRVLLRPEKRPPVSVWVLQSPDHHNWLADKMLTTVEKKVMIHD", "assay": "Radioligand binding", "description": "(§1) Radioligand binding. Radioligand binding assays were performed at Eurofins CEREP (France). The results are expressed as a percent of control specific binding (measured specific binding*100/control specific binding) and as a percent inhibition of control specific binding (100-(measured specific binding*100)/control specific binding) obtained in the presence of the test compounds. The IC50 values (concentration causing a half-maximal inhibition of control specific binding) and Hill coefficients (nH) were determined by non-linear regression analysis of the competition curves generated with mean replicate values using Hill equation curve fitting (Y = D + [A-D]/[1 + (C/C50)^nH], where Y = specific binding, A = left asymptote of the curve, D = right asymptote of the curve, C = compound concentration, C50 = IC50, and nH = slope factor). This analysis was performed using software developed at Cerep (Hill software) and validated by comparison with data generated by the commercial software SigmaPlot® 4.0 for Windows® (© 1997 by SPSS Inc.). The inhibition constants (Ki) were calculated using the Cheng Prusoff equation (Ki = IC50/[1 + L/KD], where L = concentration of radioligand in the assay, and KD = affinity of the radioligand for the receptor). A scatchard plot is used to determine the Kd."}, "D3": {"target": "D3 (Homo sapiens, UniProt P35462)", "sequence (P35462 whole entry)": "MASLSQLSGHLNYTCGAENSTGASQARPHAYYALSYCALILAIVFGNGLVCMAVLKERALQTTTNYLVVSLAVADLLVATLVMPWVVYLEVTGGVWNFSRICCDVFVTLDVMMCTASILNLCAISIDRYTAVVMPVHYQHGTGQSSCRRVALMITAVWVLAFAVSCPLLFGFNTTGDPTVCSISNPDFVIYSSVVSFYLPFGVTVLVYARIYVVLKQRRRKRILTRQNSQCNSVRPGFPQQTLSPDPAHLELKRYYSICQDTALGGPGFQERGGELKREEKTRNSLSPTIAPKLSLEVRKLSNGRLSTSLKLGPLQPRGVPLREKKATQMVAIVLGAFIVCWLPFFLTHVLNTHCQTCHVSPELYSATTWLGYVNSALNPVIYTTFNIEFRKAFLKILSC", "assay": "Radioligand binding", "description": "as §1"}, "D4.4": {"target": "T1, D4.4 (Homo sapiens, UniProt P21917)", "T1 sequence (P21917 1-419)": "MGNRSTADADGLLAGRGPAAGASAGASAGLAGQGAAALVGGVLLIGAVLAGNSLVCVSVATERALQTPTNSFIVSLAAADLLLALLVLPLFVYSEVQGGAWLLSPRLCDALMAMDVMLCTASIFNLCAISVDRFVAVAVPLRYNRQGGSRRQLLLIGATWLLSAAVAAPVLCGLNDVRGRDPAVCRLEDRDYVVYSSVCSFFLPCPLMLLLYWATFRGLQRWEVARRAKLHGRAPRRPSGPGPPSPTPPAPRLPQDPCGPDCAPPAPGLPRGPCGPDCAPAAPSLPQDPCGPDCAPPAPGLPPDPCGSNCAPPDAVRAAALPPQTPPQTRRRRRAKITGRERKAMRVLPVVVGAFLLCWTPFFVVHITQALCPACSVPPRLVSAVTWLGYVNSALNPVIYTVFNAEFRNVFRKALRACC", "assay": "Radioligand binding", "description": "as §1"}, "M5": {"target": "T2, M5 (Homo sapiens, UniProt P08912)", "T2 sequence (P08912 1-532)": "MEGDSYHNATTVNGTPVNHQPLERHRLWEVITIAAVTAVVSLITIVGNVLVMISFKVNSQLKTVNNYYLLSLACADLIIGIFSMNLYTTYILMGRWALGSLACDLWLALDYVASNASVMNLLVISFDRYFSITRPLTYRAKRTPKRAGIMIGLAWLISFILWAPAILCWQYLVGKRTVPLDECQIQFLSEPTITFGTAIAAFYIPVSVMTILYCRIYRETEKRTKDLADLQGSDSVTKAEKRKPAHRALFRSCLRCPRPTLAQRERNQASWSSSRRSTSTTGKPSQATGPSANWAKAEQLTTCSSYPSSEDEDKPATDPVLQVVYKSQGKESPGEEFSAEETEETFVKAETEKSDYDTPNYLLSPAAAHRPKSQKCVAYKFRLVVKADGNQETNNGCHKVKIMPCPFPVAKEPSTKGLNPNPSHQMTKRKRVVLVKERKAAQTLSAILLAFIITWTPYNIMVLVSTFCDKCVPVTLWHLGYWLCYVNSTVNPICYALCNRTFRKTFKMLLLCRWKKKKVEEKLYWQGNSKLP", "assay": "Radioligand binding", "description": "as §1"}, "κ (KOP)": {"target": "κ (KOP) (Rattus norvegicus, UniProt P34975)", "sequence (P34975 whole entry)": "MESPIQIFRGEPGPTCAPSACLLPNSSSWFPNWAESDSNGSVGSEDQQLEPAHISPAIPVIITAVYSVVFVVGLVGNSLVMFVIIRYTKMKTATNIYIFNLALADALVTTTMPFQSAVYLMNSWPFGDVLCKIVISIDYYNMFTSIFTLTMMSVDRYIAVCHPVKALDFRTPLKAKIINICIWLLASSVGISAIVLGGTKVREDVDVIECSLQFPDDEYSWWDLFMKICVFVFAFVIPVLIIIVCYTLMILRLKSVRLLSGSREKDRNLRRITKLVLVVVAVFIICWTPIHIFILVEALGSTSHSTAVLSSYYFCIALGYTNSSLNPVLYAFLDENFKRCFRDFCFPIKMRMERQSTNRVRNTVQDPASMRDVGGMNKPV", "assay": "Radioligand binding", "description": "as §1"}, "mice": {"test_system": "mice", "assay": "Subcutaneous pentylenetetrazole seizure test (ScPTZ, SCMET)", "type": "in vivo", "conditions": "ip, […]", "quoted_text": "The assays were carried out within the Epilepsy Therapy Screening Program (ETSP, previously known as the Anticonvulsant Screening Program, ASP), Epilepsy Branch, National Institute of Neurological and Communicative Disorders and Stroke, National Institutes of Health in Rockville, MD, USA [23]."}, "CYP2C19": {"target": "T3, CYP2C19 (Homo sapiens, UniProt P33261)", "T3 construct": "tissue Puracyp #011; host or cells: human liver microsomes", "T3 sequence (P33261 whole entry)": "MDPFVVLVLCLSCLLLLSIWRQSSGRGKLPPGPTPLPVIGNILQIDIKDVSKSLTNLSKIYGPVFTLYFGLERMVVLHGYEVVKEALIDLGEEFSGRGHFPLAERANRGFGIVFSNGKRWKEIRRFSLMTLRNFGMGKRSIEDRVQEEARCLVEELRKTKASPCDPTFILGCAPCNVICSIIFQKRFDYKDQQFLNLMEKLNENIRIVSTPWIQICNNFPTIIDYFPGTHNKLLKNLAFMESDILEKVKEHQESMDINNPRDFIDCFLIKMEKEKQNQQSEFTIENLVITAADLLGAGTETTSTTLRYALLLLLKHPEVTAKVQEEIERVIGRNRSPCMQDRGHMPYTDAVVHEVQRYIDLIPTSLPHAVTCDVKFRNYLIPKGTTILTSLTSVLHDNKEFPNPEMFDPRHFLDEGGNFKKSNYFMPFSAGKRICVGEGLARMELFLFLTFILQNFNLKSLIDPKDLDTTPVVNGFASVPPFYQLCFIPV", "assay": "Human cytochrome P450 inhibition (human liver microsomes)", "type": "in vitro ADME", "description": "(§2) The selective reactions utilized for each enzyme were as follows: CYP1A2—phenacetin deethylation, CYP2A6—coumarin 7-hydroxylation, CYP2B6—7-ethoxy-4-trifluoromethyl coumarin O-deethylation, CYP2C9—diclofenac 4-hydroxylation, CYP2C19—S-mephenytoin 4-hydroxylation, CYP2D6—bufuralol 1’-hydroxylation, CYP2E1—chlorzoxazone 6-hydroxylation, CYP3A4—testosterone 6β-hydroxylation. For inhibitory evaluation, human liver microsomes and the tested compound (added in methanol as a solvent) were incubated under aerobic conditions with cytochrome P450 isozyme-selective substrates and excess NADPH at 37 °C. Incubations were for time periods over which the reaction in the absence of the compound, were determined to be linear, and proportional to the protein concentration. The human liver microsomes used were selected from the bank of those commercially available to be especially rich in the amount of the cytochrome P450 isozyme under investigation. However, it is important to note that the microsomes contained all the other isozymes in addition, and if reaction/substrate was less than specific, the other isozymes may have contributed to a minor extent to the enzyme activity determined. Following incubation, the reaction was terminated, an internal standard added, the metabolic products extracted and separated by reverse phase HPLC. Each assay was performed in duplicate, and the mean value calculated. The HPLC elutions were monitored by UV absorbance for all CYP reactions except those for CYP2A6, CYP2B6 and CYP2D6 where fluorescence monitoring was employed. Quantification was by comparison with authentic metabolites."}, "CYP2E1": {"target": "T4, CYP2E1 (Homo sapiens, UniProt P05181)", "T4 construct": "The human liver microsomes used were selected from the bank of those commercially available; from tissue; host or cells: human liver microsomes", "T4 sequence (P05181 whole entry)": "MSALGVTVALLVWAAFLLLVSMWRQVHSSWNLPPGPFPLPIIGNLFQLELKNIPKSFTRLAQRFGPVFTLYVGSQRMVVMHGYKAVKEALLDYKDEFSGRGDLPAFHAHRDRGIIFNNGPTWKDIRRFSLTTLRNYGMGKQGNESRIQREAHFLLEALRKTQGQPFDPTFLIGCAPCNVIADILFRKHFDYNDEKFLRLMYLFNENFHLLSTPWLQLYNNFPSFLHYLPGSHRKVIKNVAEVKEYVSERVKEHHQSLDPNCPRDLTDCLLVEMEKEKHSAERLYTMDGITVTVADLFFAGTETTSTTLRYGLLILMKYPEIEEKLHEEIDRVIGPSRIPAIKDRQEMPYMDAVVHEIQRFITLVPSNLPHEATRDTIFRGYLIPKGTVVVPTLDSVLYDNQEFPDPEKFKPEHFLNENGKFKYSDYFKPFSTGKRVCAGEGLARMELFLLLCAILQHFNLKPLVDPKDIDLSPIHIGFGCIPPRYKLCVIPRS", "assay": "Human cytochrome P450 inhibition (human liver microsomes)", "type": "in vitro ADME", "description": "as §2"}, "[1]": {"conditions": "0.01 μM, read-out: % of control specific binding"}, "[2]": {"conditions": "0.1 μM, read-out: % of control specific binding"}, "[3]": {"conditions": "1 μM, read-out: % of control specific binding"}, "[4]": {"conditions": "10 μM, read-out: % of control specific binding"}, "[5]": {"conditions": "100 μM, read-out: % of control specific binding"}},
  "note": "Counter-ions that a name gives are not always drawn.",
  "data": [
    {"smiles": "CCC(CO)NCCOc1c(C)cccc1Cl", "note": "(centres unmarked) [Compound 4, R,S-2-((2-(2-chloro-6-methylphenoxy)ethyl)amino)butan-1-ol]", "values": [
      {"measurement": "% of control specific binding", "setting": "5-HT7; 100 μM", "value": 26.4, "unit": "%"},
      {"measurement": "% of control specific binding", "setting": "D3; 100 μM", "value": 11.9, "unit": "%"},
      {"measurement": "% of control specific binding", "setting": "D4.4; 100 μM", "value": 26.6, "unit": "%"},
      {"measurement": "% of control specific binding", "setting": "M5; 100 μM", "value": 21.5, "unit": "%"},
      {"measurement": "% of control specific binding", "setting": "κ (KOP); 100 μM", "value": 29.0, "unit": "%"},
      {"measurement": "SCMET ED50", "setting": "mice; mice", "value": "> 64", "unit": "mg/kg"},
      {"measurement": "Inhibition type", "setting": "CYP2C19", "value": "Mixed/competitive"},
      {"measurement": "Ki", "setting": "CYP2C19", "value": 54, "unit": "µM"},
      {"measurement": "% inhibition of 500 µM concentration", "setting": "CYP2C19; 500 µM, substrate at […]", "value": "80 (substrate at 150.0 µM) %"},
      {"measurement": "Inhibition type", "setting": "CYP2E1", "value": "Slight inhibition"},
      {"measurement": "% inhibition of 500 µM concentration", "setting": "CYP2E1; 500 µM, substrate at 500.0 µM", "value": "17 (substrate at 500.0 µM) %"}
    ]},
    {"smiles": "CCC(CO)NCCOc1c(C)cccc1Cl", "note": "(centres unmarked) [KM-408, R,S-2-((2-(2-chloro-6-methylphenoxy)ethyl)amino)butan-1-ol hydrochloride]", "values": [
      {"measurement": "IC50", "setting": "5-HT7", "value": 18, "unit": "µM"},
      {"measurement": "Ki", "setting": "5-HT7", "value": 6.5, "unit": "µM"},
      {"measurement": "remaining activity at 0.01 µM", "setting": "5-HT7; [1]", "value": 107, "unit": "%"},
      {"measurement": "remaining activity at 0.1 µM", "setting": "5-HT7; [2]", "value": 106, "unit": "%"},
      {"measurement": "remaining activity at 1 µM", "setting": "5-HT7; [3]", "value": 105, "unit": "%"},
      {"measurement": "remaining activity at 10 µM", "setting": "5-HT7; [4]", "value": 66.1, "unit": "%"},
      {"measurement": "remaining activity at 100 µM", "setting": "5-HT7; [5]", "value": 20.2, "unit": "%"},
      {"measurement": "IC50", "setting": "D3", "value": 22, "unit": "µM"},
      {"measurement": "Ki", "setting": "D3", "value": 4.9, "unit": "µM"},
      {"measurement": "remaining activity at 0.003 µM", "setting": "D3; 0.003 μM, read-out: % of control specific binding", "value": 104, "unit": "%"},
      {"measurement": "remaining activity at 0.03 µM", "setting": "D3; 0.03 μM, read-out: % of control specific binding", "value": 103, "unit": "%"},
      {"measurement": "remaining activity at 0.3 µM", "setting": "D3; 0.3 μM, read-out: % of control specific binding", "value": 102, "unit": "%"},
      {"measurement": "remaining activity at 3 µM", "setting": "D3; 3 μM, read-out: % of control specific binding", "value": 95.3, "unit": "%"},
      {"measurement": "remaining activity at 30 µM", "setting": "D3; 30 μM, read-out: % of control specific binding", "value": 42.5, "unit": "%"},
      {"measurement": "IC50", "setting": "D4.4", "value": 66, "unit": "µM"},
      {"measurement": "Ki", "setting": "D4.4", "value": 25, "unit": "µM"},
      {"measurement": "remaining activity at 0.01 µM", "setting": "D4.4; [1]", "value": 100, "unit": "%"},
      {"measurement": "remaining activity at 0.1 µM", "setting": "D4.4; [2]", "value": 101, "unit": "%"},
      {"measurement": "remaining activity at 1 µM", "setting": "D4.4; [3]", "value": 97.6, "unit": "%"},
      {"measurement": "remaining activity at 10 µM", "setting": "D4.4; [4]", "value": 87.9, "unit": "%"},
      {"measurement": "remaining activity at 100 µM", "setting": "D4.4; [5]", "value": 39.4, "unit": "%"},
      {"measurement": "IC50", "setting": "M5", "value": 35, "unit": "µM"},
      {"measurement": "Ki", "setting": "M5", "value": 18, "unit": "µM"},
      {"measurement": "remaining activity at 0.01 µM", "setting": "M5; [1]", "value": 104, "unit": "%"},
      {"measurement": "remaining activity at 0.1 µM", "setting": "M5; [2]", "value": 92.6, "unit": "%"},
      {"measurement": "remaining activity at 1 µM", "setting": "M5; [3]", "value": 96.8, "unit": "%"},
      {"measurement": "remaining activity at 10 µM", "setting": "M5; [4]", "value": 76.6, "unit": "%"},
      {"measurement": "remaining activity at 100 µM", "setting": "M5; [5]", "value": 26, "unit": "%"},
      {"measurement": "IC50", "setting": "κ (KOP)", "value": 25, "unit": "µM"},
      {"measurement": "Ki", "setting": "κ (KOP)", "value": 17, "unit": "µM"},
      {"measurement": "remaining activity at 0.01 µM", "setting": "κ (KOP); [1]", "value": 104, "unit": "%"},
      {"measurement": "remaining activity at 0.1 µM", "setting": "κ (KOP); [2]", "value": 98.3, "unit": "%"},
      {"measurement": "remaining activity at 1 µM", "setting": "κ (KOP); [3]", "value": 97.3, "unit": "%"},
      {"measurement": "remaining activity at 10 µM", "setting": "κ (KOP); [4]", "value": 72.1, "unit": "%"},
      {"measurement": "remaining activity at 100 µM", "setting": "κ (KOP); [5]", "value": 21.1, "unit": "%"},
      {"measurement": "ED50", "setting": "mice; Mus musculus, read-out: SCMET ED50", "value": "> 100", "unit": "mg/kg"}
    ]}
  ]
}
